In the NIST ThermoML archive (doi:10.1016/j.tca.2013.05.023):
Numbers after ± are expanded uncertainties.

Tests used:
[1] = molar heat capacity at constant pressure; xn = mol fraction of the nth substance listed; details: 101 kPa, Liquid, Small sample (50 mg) DSC, x1 = 0.3333
[2] = xn = mol fraction of the nth substance listed; details: 101 kPa, Liquid, Alternating current cell with electrodes, x1 = 0.3333

CCN(CC)CCO.Cl [2-(diethylamino)ethanol hydrochloride] + OCC(O)CO
Details	electrical conductivity, [2] [S/m]	molar heat capacity at constant pressure, [1] [J/K/mol]
298.15 K	0.069 ± 0.001	–
303.15 K	0.098 ± 0.002	83.46 ± 3.5
308.15 K	0.134 ± 0.003	83.96 ± 3.6
313.15 K	0.175 ± 0.004	84.39 ± 3.6
318.15 K	0.228 ± 0.005	85.16 ± 3.6
323.15 K	0.293 ± 0.006	85.72 ± 3.6
328.15 K	0.368 ± 0.007	86.36 ± 3.7
333.15 K	0.456 ± 0.009	86.96 ± 3.7
338.15 K	0.556 ± 0.011	87.79 ± 3.7
343.15 K	0.667 ± 0.013	88.46 ± 3.8
348.15 K	–	89.09 ± 3.8
353.15 K	–	89.76 ± 3.8

CCN(CC)CCO.Cl [2-(diethylamino)ethanol hydrochloride] + OCCO
Details	electrical conductivity, [2] [S/m]	molar heat capacity at constant pressure, [1] [J/K/mol]
298.15 K	0.47 ± 0.009	–
303.15 K	0.565 ± 0.011	68.03 ± 2.9
308.15 K	0.68 ± 0.014	68.43 ± 2.9
313.15 K	0.81 ± 0.016	68.83 ± 2.9
318.15 K	0.96 ± 0.019	69.33 ± 2.9
323.15 K	1.12 ± 0.02	69.83 ± 3
328.15 K	1.29 ± 0.03	70.36 ± 3
333.15 K	1.48 ± 0.03	71.03 ± 3
338.15 K	1.68 ± 0.03	71.53 ± 3
343.15 K	1.88 ± 0.04	72.09 ± 3.1
348.15 K	–	72.69 ± 3.1
353.15 K	–	73.26 ± 3.1
